# Measurements taken from patent publication US20250241893A1, “TREATMENT OF COGNITIVE DYSFUNCTION” (GH RESEARCH IRELAND LIMITED, priority 2022, published 2025).
# How the values were obtained:
# [1] = tested on: Salmonella typhimurium (TA98, TA100, TA1535 and TA1537); test: Bacterial mutation test in Salmonella typhimurium; format: cell-based; conditions: up to 5000 μg/plate, absence and presence of rat liver S-9
# Experimental: These conditions included treatments at concentrations up to 5000 μg/plate (the maximum recommended concentration according to current regulatory guidelines), in the absence and in the presence of a rat liver metabolic activation system (S-9).
# [2] = tested on: patients with treatment-resistant major depressive disorder (TRD); test: Phase 1/2 clinical trial of inhaled 5-MeO-DMT in TRD; conditions: for Patients with at least one ADR: Part A, n=4, all mild, resolved spontaneously
# Experimental: Patients were assigned to different groups. In the context of the present invention, the group who received a single, 12 mg dose and the group who underwent an intra-day individualized dosing regimen (IDR) that allowed for multiple, escalating doses (6 mg, 12 mg and 18 mg) within a single day, driven by the intensity of the patient-reported psychedelic experience are of interest.
# The data gathered include the assessment of the treated patients against several scales including the Montgomery-Asberg Depression Rating Scale (MADRS) and the Brief Psychiatric Rating Scale (BPRS).
# The MADRS item that is of particular relevance to impaired concentration and memory is “concentration difficulties”. This item represents difficulties in collecting one's thoughts mounting to incapacitating lack of concentration and is scored on a scale ranging from 0 to 6. The score is 0 if the patient has no difficulties in concentrating. The score is 2 in case of occasional difficulties in collecting one's thoughts. A score of 4 is assigned in case of difficulties in concentrating and sustaining thought which reduces ability to read or hold a conversation. The score is 6 if the patient is unable to read or converse without great difficulty.
# The MADRS item “reduced sleep” represents the experience of reduced duration or depth of sleep compared to the subject's own normal pattern when well. A score of 0 is assigned when the subject sleeps as usual. […] A score of 4 means that sleep is reduced or broken by at least two hours. A score of 6 means less than two or three hours sleep.
# This trial was designed in two parts. Part A was an open-label, single-arm, single-dose Phase 1 trial with two dose levels (12 mg (n=4) and 18 mg (n=4)). […] The primary endpoint of Part B was to assess the effects on the severity of depression, as assessed by the proportion of patients in remission on day seven after dosing, defined as a MADRS total score of less than or equal to 10.
# [3] = 12 mg n=4, sum of patient scores, 2 hours after dose, baseline 16
# [4] = 12 mg n=4, sum of patient scores, day 1, baseline 13
# [5] = 12 mg n=4, sum of patient scores, day 1, baseline 16
# [6] = 12 mg n=4, sum of patient scores, day 7, baseline 12
# [7] = 12 mg n=4, sum of patient scores, day 7, baseline 13
# [8] = 12 mg n=4, sum of patient scores, day 7, baseline 16
# [9] = IDR n=8, sum of patient scores, day 1, baseline 25
# [10] = IDR n=8, sum of patient scores, day 7, baseline 25
# [11] = IDR n=8, sum of patient scores, day 7, baseline 30
compound,measurement,setting,value
COc1ccc2[nH]cc(CCN(C)C)c2c1 [5-MeO-DMT],Mutation induction,[1],did not induce mutation
same,MADRS Suicidal Thoughts improvement,"[2]; 12 mg n=4, sum of patient scores, 2 hours after dose, baseline 8",5
same,MADRS Inner Tension improvement,"[2]; 12 mg n=4, sum of patient scores, 2 hours after dose, baseline 13",11
same,MADRS Concentration Difficulties improvement,[2]; [3],9
same,MADRS Inability to Feel improvement,[2]; [3],7
same,MADRS Lassitude improvement,[2]; [3],6
same,MADRS Pessimistic Thoughts improvement,[2]; [3],8
same,BPRS Blunted Affect improvement,"[2]; 12 mg n=4, sum of patient scores, 3 hours after dose, baseline 11",3
same,BPRS Emotional Withdrawal improvement,"[2]; 12 mg n=4, sum of patient scores, 3 hours after dose, baseline 13",2
same,BPRS Tension improvement,"[2]; 12 mg n=4, sum of patient scores, 3 hours after dose, baseline 14",5
same,BPRS Guilt Feelings improvement,"[2]; 12 mg n=4, sum of patient scores, 3 hours after dose, baseline 18",9
same,BPRS Anxiety improvement,"[2]; 12 mg n=4, sum of patient scores, 3 hours after dose, baseline 25",14
same,MADRS Suicidal Thoughts improvement,"[2]; 12 mg n=4, sum of patient scores, day 1, baseline 8",3
same,BPRS Blunted Affect improvement,"[2]; 12 mg n=4, sum of patient scores, day 1, baseline 11",5
same,MADRS Reduced Sleep improvement,"[2]; 12 mg n=4, sum of patient scores, day 1, baseline 12",2
same,BPRS Emotional Withdrawal improvement,[2]; [4],5
same,MADRS Inner Tension improvement,[2]; [4],10
same,BPRS Tension improvement,"[2]; 12 mg n=4, sum of patient scores, day 1, baseline 14",8
same,MADRS Concentration Difficulties improvement,[2]; [5],14
same,MADRS Inability to Feel improvement,[2]; [5],15
same,MADRS Lassitude improvement,[2]; [5],16
same,MADRS Pessimistic Thoughts improvement,[2]; [5],9
same,BPRS Guilt Feelings improvement,"[2]; 12 mg n=4, sum of patient scores, day 1, baseline 18",13
same,BPRS Anxiety improvement,"[2]; 12 mg n=4, sum of patient scores, day 1, baseline 25",19
same,MADRS Suicidal Thoughts improvement,"[2]; 12 mg n=4, sum of patient scores, day 7, baseline 8",1
same,BPRS Blunted Affect improvement,"[2]; 12 mg n=4, sum of patient scores, day 7, baseline 11",6
same,MADRS Reduced Sleep improvement,[2]; [6],6
same,MADRS Reduced Sleep percentage improvement,[2]; [6],50.00%
same,BPRS Emotional Withdrawal improvement,[2]; [7],7
same,MADRS Inner Tension improvement,[2]; [7],8
same,BPRS Tension improvement,"[2]; 12 mg n=4, sum of patient scores, day 7, baseline 14",8
same,MADRS Concentration Difficulties improvement,[2]; [8],13
same,MADRS Inability to Feel improvement,[2]; [8],15
same,MADRS Lassitude improvement,[2]; [8],13
same,MADRS Pessimistic Thoughts improvement,[2]; [8],8
same,BPRS Guilt Feelings improvement,"[2]; 12 mg n=4, sum of patient scores, day 7, baseline 18",13
same,BPRS Anxiety improvement,"[2]; 12 mg n=4, sum of patient scores, day 7, baseline 25",19
same,MADRS Suicidal Thoughts improvement,"[2]; IDR n=8, sum of patient scores, 2 hours after last dose, baseline 11",8
same,MADRS Inner Tension improvement,"[2]; IDR n=8, sum of patient scores, 2 hours after last dose, baseline 26",15
same,MADRS Lassitude improvement,"[2]; IDR n=8, sum of patient scores, 2 hours after last dose, baseline 27",17
same,MADRS Pessimistic Thoughts improvement,"[2]; IDR n=8, sum of patient scores, 2 hours after last dose, baseline 28",21
same,MADRS Concentration Difficulties improvement,"[2]; IDR n=8, sum of patient scores, 2 hours after last dose, baseline 30",19
same,MADRS Inability to Feel improvement,"[2]; IDR n=8, sum of patient scores, 2 hours after last dose, baseline 36",24
same,BPRS Emotional Withdrawal improvement,"[2]; IDR n=8, sum of patient scores, 3 hours after last dose, baseline 13",5
same,BPRS Blunted Affect improvement,"[2]; IDR n=8, sum of patient scores, 3 hours after last dose, baseline 15",4
same,BPRS Tension improvement,"[2]; IDR n=8, sum of patient scores, 3 hours after last dose, baseline 16",5
same,BPRS Guilt Feelings improvement,"[2]; IDR n=8, sum of patient scores, 3 hours after last dose, baseline 34",20
same,BPRS Anxiety improvement,"[2]; IDR n=8, sum of patient scores, 3 hours after last dose, baseline 37",18
same,MADRS Suicidal Thoughts improvement,"[2]; IDR n=8, sum of patient scores, day 1, baseline 11",10
same,BPRS Emotional Withdrawal improvement,"[2]; IDR n=8, sum of patient scores, day 1, baseline 13",5
same,BPRS Blunted Affect improvement,"[2]; IDR n=8, sum of patient scores, day 1, baseline 15",7
same,BPRS Tension improvement,"[2]; IDR n=8, sum of patient scores, day 1, baseline 16",5
same,MADRS Reduced Sleep improvement,[2]; [9],13
same,MADRS Reduced Sleep percentage improvement,[2]; [9],52.00%
same,MADRS Inner Tension improvement,"[2]; IDR n=8, sum of patient scores, day 1, baseline 26",20
same,MADRS Lassitude improvement,"[2]; IDR n=8, sum of patient scores, day 1, baseline 27",22
same,MADRS Pessimistic Thoughts improvement,"[2]; IDR n=8, sum of patient scores, day 1, baseline 28",24
same,MADRS Concentration Difficulties improvement,"[2]; IDR n=8, sum of patient scores, day 1, baseline 30",29
same,BPRS Guilt Feelings improvement,"[2]; IDR n=8, sum of patient scores, day 1, baseline 34",23
same,MADRS Inability to Feel improvement,"[2]; IDR n=8, sum of patient scores, day 1, baseline 36",34
same,BPRS Anxiety improvement,"[2]; IDR n=8, sum of patient scores, day 1, baseline 37",21
same,MADRS Suicidal Thoughts improvement,"[2]; IDR n=8, sum of patient scores, day 7, baseline 11",8
same,BPRS Emotional Withdrawal improvement,"[2]; IDR n=8, sum of patient scores, day 7, baseline 13",5
same,BPRS Blunted Affect improvement,"[2]; IDR n=8, sum of patient scores, day 7, baseline 15",7
same,BPRS Tension improvement,"[2]; IDR n=8, sum of patient scores, day 7, baseline 16",6
same,MADRS Reduced Sleep improvement,[2]; [10],16
same,MADRS Reduced Sleep percentage improvement,[2]; [10],64.00%
same,MADRS Inner Tension improvement,"[2]; IDR n=8, sum of patient scores, day 7, baseline 26",14
same,MADRS Lassitude improvement,"[2]; IDR n=8, sum of patient scores, day 7, baseline 27",24
same,MADRS Pessimistic Thoughts improvement,"[2]; IDR n=8, sum of patient scores, day 7, baseline 28",25
same,MADRS Concentration Difficulties improvement,[2]; [11],21
same,MADRS Concentration Difficulties percentage improvement,[2]; [11],70.00%
same,BPRS Guilt Feelings improvement,"[2]; IDR n=8, sum of patient scores, day 7, baseline 34",24
same,MADRS Inability to Feel improvement,"[2]; IDR n=8, sum of patient scores, day 7, baseline 36",30
same,BPRS Anxiety improvement,"[2]; IDR n=8, sum of patient scores, day 7, baseline 37",20
same,SAEs,[2]; Part A (12 mg and 18 mg),No SAEs were reported
same,Patients with at least one ADR,[2]; 12 mg single dose,3 of 4
same,Patients with at least one ADR,[2]; 18 mg single dose,3 of 4
